Legend:
ZmCPS::ga1-1 = experiment: Effect of DPC on plant height (step 4.1), ZmCPS::ga1-1; type: in vivo, Arabidopsis thaliana; conditions: for Plant height: 12 days; for Plant height reduction rate: relative to 0 mg/L
Procedure: (§1) In the following examples, the growth conditions of Arabidopsis thaliana are: culturing in a growth chamber with a photoperiod of 16 h light/8 h dark, a light intensity of 60 μmol/m^2/s, a humidity of 60%-70%, and a temperature of 22° C.
(§2) The experiment was repeated three times, and the specific steps of each repeated experiment were as follows:
(§3) Thirty homozygous line plants of the HRP::ga1-1 of step 2 were randomly selected and randomly divided into three groups, ten plants in each group. On the 33rd day of sowing (the day of sowing was recorded as the first day of sowing), the plants of these three groups were treated as follows, respectively one group was sprayed with water (i.e., 0 mg/L DPC solution) and cultured for 12 days to obtain untreated HRP::ga1-1; one group was sprayed with 30 mg/L DPC solution and cultured for 12 days to obtain 30 mg/L DPC-treated HRP::ga1-1; the last group was sprayed with 500 mg/L aqueous DPC solution and cultured for 12 days to obtain 500 mg/L DPC-treated HRP::ga1-1.
(§4) According to the above method, the homozygous line plants of the HRP::ga1-1 were replaced with the homozygous line plants of the HRP::ga1-5, the homozygous line plants of the ZmCPS::ga1-1, the homozygous line plants of the ZmCPS::ga1-5, the homozygous line plants of the PsSuper1300::ga1-1 and the homozygous line plants of the PsSuper1300::ga1-5 respectively, the other steps were unchanged, and untreated HRP::ga1-5, 30 mg/L DPC-treated HRP::ga1-5, 500 mg/L DPC-treated HRP::ga1-5, untreated ZmCPS::ga1-1, 30 mg/L DPC-treated ZmCPS::ga1-1, 500 mg/L DPC-treated ZmCPS::ga1-1, untreated ZmCPS::ga1-5, 30 mg/L DPC-treated ZmCPS::ga1-5, 500 mg/L DPC-treated ZmCPS::ga1-5, untreated PsSuper1300::ga1-1, 30 mg/L DPC-treated PsSuper1300::ga1-1, 500 mg/L DPC-treated PsSuper1300::ga1-1, untreated PsSuper1300::ga1-5, 30 mg/L DPC-treated PsSuper1300::ga1-5 and 500 mg/L DPC-treated PsSuper1300::ga1-5 were obtained, respectively.
(§5) The plant heights of the above Arabidopsis thaliana before the treatment (FIG. 1) and after different treatments (FIG. 2 and Table 2) were measured.

pSuper1300::ga1-5 = experiment: Effect of DPC on plant height (step 4.1), empty vector pSuper1300::ga1-5; type: in vivo, Arabidopsis thaliana; conditions: for Plant height: 12 days; for Plant height reduction rate: relative to 0 mg/L
Procedure: as §1, §2, §3, §4, §5

HRP::ga1-5 = experiment: Effects of different concentrations of DPC on plant height (step 4.2), HRP::ga1-5; type: in vivo, Arabidopsis thaliana
Procedure: as §1, §2
(§6) Seventy homozygous line plants of the HRP::ga1-1 of step 2 were randomly selected and randomly divided into seven groups, ten plants in each group. On the 33rd day of sowing (the day of sowing was recorded as the first day of sowing), the plants of these seven groups were treated as follows, respectively: one group was sprayed with water (i.e., 0 mg/L aqueous DPC solution) and cultured for 12 days to obtain untreated HRP::ga1-1; one group was sprayed with 30 mg/L aqueous DPC solution and cultured for 12 days to obtain 30 mg/L DPC-treated HRP::ga1-1; one group was sprayed with 50 mg/L aqueous DPC solution and cultured for 12 days to obtain 50 mg/L DPC-treated HRP::ga1-1; one group was sprayed with 100 mg/L aqueous DPC solution and cultured for 12 days to obtain 100 mg/L DPC-treated HRP::ga1-1; one group was sprayed with 300 mg/L aqueous DPC solution and cultured for 12 days to obtain 300 mg/L DPC-treated HRP::ga1-1; one group was sprayed with 500 mg/L aqueous DPC solution and cultured for 12 days to obtain 500 mg/L DPC-treated HRP::ga1-1; one group was sprayed with 1000 mg/L aqueous DPC solution and cultured for 12 days to obtain 1000 mg/L DPC-treated HRP::ga1-1.
According to the above method, the homozygous line plant of the HRP::ga1-1 was replaced with the pure homozygous line plant of the HRP::ga1-5, and the other steps were unchanged to obtain untreated HRP::ga1-5, 30 mg/L DPC-treated HRP::ga1-5, 50 mg/L DPC-treated HRP::ga1-5, 100 mg/L DPC-treated HRP::ga1-5, 300 mg/L DPC-treated HRP::ga1-5, 500 mg/L DPC-treated HRP::ga1-5 and 1000 mg/L DPC-treated HRP::ga1-5, respectively.
(§7) The plant heights of the differently treated Arabidopsis thaliana were measured respectively (FIG. 3), and the average plant heights are shown in Table 3.

HRP::ga1-1 = experiment: Effects of different concentrations of DPC on plant height (step 4.2), HRP::ga1-1; type: in vivo, Arabidopsis thaliana
Procedure: as §1, §2, §6, §7

maize Zhengdan 958 = conditions: 1000 mg/L DPC (Chen yin, 2012); cited from earlier work
pSuper1300::ga1-1 = experiment: Effect of DPC on plant height (step 4.1), empty vector pSuper1300::ga1-1; type: in vivo, Arabidopsis thaliana; conditions: for Plant height: 12 days; for Plant height reduction rate: relative to 0 mg/L
Procedure: as §1, §2, §3, §4, §5

ZmCPS::ga1-5 = experiment: Effect of DPC on plant height (step 4.1), ZmCPS::ga1-5; type: in vivo, Arabidopsis thaliana; conditions: for Plant height: 12 days; for Plant height reduction rate: relative to 0 mg/L
Procedure: as §1, §2, §3, §4, §5

[1] = 30 mg/L DPC spray, 12 days (step 4.2)
[2] = 500 mg/L DPC spray, 12 days (step 4.2)

C[N+]1(C)CCCCC1.[Cl-] [DPC, 1,1-dimethylpiperidinium chloride]
Plant height (ZmCPS::ga1-1; 30 mg/L DPC spray): 16.52 ± 0.31 cm
Plant height reduction rate (ZmCPS::ga1-1; 30 mg/L DPC): −0.12%
Plant height (ZmCPS::ga1-1; 500 mg/L DPC spray): 16.45 ± 0.21 cm
Plant height reduction rate (ZmCPS::ga1-1; 500 mg/L DPC): 0.30%
Effect of DPC on plant height (in words) (ZmCPS::ga1-1; 30 and 500 mg/L DPC): no effect
Plant height (pSuper1300::ga1-5; 30 mg/L DPC spray): 6.54 ± 0.20 cm
Plant height reduction rate (pSuper1300::ga1-5; 30 mg/L DPC): 5.90%
Plant height (pSuper1300::ga1-5; 500 mg/L DPC spray): 6.21 ± 0.14 cm
Plant height reduction rate (pSuper1300::ga1-5; 500 mg/L DPC): 10.65%
Plant height (average) (HRP::ga1-5; [1]): 11.93 cm
Plant height (average) (HRP::ga1-5; 50 mg/L DPC spray, 12 days): 9.843 cm
Plant height (average) (HRP::ga1-5; 100 mg/L DPC spray, 12 days): 10.14 cm
Plant height (average) (HRP::ga1-5; 300 mg/L DPC spray, 12 days): 9.957 cm
Plant height (average) (HRP::ga1-5; [2]): 9.857 cm
Plant height (average) (HRP::ga1-5; 1000 mg/L DPC spray, 12 days): 7.357 cm
Plant height (average) (HRP::ga1-1; [1]): 9.714 cm
Plant height (average) (HRP::ga1-1; 50 mg/L DPC spray, 12 days): 9.314 cm
Plant height (average) (HRP::ga1-1; 100 mg/L DPC spray, 12 days): 9.343 cm
Plant height (average) (HRP::ga1-1; 300 mg/L DPC spray, 12 days): 8.857 cm
Plant height (average) (HRP::ga1-1; [2]): 8.586 cm
Plant height (average) (HRP::ga1-1; 1000 mg/L DPC spray, 12 days): 7.243 cm
Plant height and stem diameter compared with control (maize Zhengdan 958): no significant difference
Plant height (pSuper1300::ga1-1; 30 mg/L DPC spray): 4.33 ± 0.27 cm
Plant height reduction rate (pSuper1300::ga1-1; 30 mg/L DPC): 4.84%
Plant height (pSuper1300::ga1-1; 500 mg/L DPC spray): 3.98 ± 0.17 cm
Plant height reduction rate (pSuper1300::ga1-1; 500 mg/L DPC): 12.53%
Plant height (ZmCPS::ga1-5; 30 mg/L DPC spray): 16.79 ± 0.13 cm
Plant height reduction rate (ZmCPS::ga1-5; 30 mg/L DPC): 0.06%
Plant height (ZmCPS::ga1-5; 500 mg/L DPC spray): 16.66 ± 0.31 cm
Plant height reduction rate (ZmCPS::ga1-5; 500 mg/L DPC): 0.83%
Effect of DPC on plant height (in words) (ZmCPS::ga1-5; 30 and 500 mg/L DPC): no effect
